Converted amounts (≈) assume the structure as drawn. “Also recorded” adds a separate entry of the source. Residues, ends and D or L forms follow the SMILES beside them.
Experiments:
Salmonella = assay: Antimicrobial activity of supernatants from recombinant L. lactis (CFU/ml and OD600); type: cell-based
Protocol: (§1) The loss of cell viability was monitored to determine the antimicrobial activity of the supernatants from the recombinant L. lactis strains. Briefly, 0.3 ml of fresh medium, individually inoculated with the target strains, was added to tubes containing 0.7 ml of the supernatants, to reach a final concentration of 1×10^3 cells/ml. As a control, a supernatant sample from the L. lactis strain containing only the expression vector pMSP3545 (C-SN) was used. Tubes were incubated at 37° C. with agitation. Samples were taken at 30 min, 2 and 6 h, and the number of colony forming units per ml (CFU/ml) was determined by plating 25 μl on LB agar plates. The plates were incubated for 16 h at 37° C., and the number of viable cells was assessed by counting CFUs. Additionally, the OD600 was monitored up to 15 h post-inoculation to follow the influence of AMPs on culture growth.
(§2) Growth of pathogenic and non-pathogenic E. coli strains was assessed in medium containing these AMP-SNs while only pathogenic Salmonella strains were tested. In all cases, AMP-SNs diluted 7:3 with LB were inoculated with each indicator strain and growth was monitored spectrophotometrically at 600 nm for 15 hr.

E. coli [1] = type: cell-based, Escherichia coli
Protocol: (§3) MICs of the synthetic AMPs were determined in triplicate by a liquid growth inhibition microdilution assays in flat-bottom sterile polypropylene 96-well plates (Maxisorp, Nunc, Roskilde, Denmark), in a final volume of 150 μl. The bacteria were diluted 2% in fresh media and grown to an OD600=0.5±0.05 (OD600=1≈10^9 cells/ml). The cells were diluted 50-fold to 10^7 cells/ml in fresh media. The AMP stocks were serially diluted (150 μl/well) in liquid growth media in a 96-well plate, covering a concentration range of 1,000 μg/ml-1 ng/ml. Briefly, 150 μl of the serially diluted AMPs were inoculated with 5 μl of the bacterial strains to achieve a final indicator concentration of 3×10^5 cells/ml. For each strain a row with no peptide was included as growth control, and for each test a row of medium-only wells was included as a sterility control. Plates were then incubated at 37° C. for 16-20 h without shaking, and growth inhibition was assessed measuring OD600 using a microplate reader (SpectraMax® Plus384; Molecular Devices, Sunnyvale, Calif., USA). MICs were identified as the lowest antimicrobial concentration where the OD600 […].

S. typhimurium = assay: Antimicrobial activity of supernatants from recombinant L. lactis (culture titer); type: cell-based, Salmonella typhimurium; conditions: FIG. 3a; by 2 h post-inoculation
Protocol: as §1, §2

L. lactis IL1403 = assay: MIC of synthetic AMPs, liquid growth inhibition microdilution assay; type: cell-based, Lactococcus lactis; conditions: synthetic peptide; for L. lactis growth inhibition: all concentrations tested (up to 1 mg/ml)
Protocol: as §3

E. coli [2] = assay: Antimicrobial activity of supernatants from recombinant L. lactis (CFU/ml and OD600); type: cell-based, Escherichia coli; conditions: 6 h post-inoculation; supernatant of recombinant L. lactis; pathogenic and non-pathogenic E. coli
Protocol: as §1, §2

S. infantis = assay: Antimicrobial activity of supernatants from recombinant L. lactis (culture titer); type: cell-based, Salmonella infantis; conditions: FIG. 3a; by 2 h post-inoculation
Protocol: as §1, §2

| Compound | Salmonella growth (rate) reduction relative to C-SN (Salmonella; 10 to 15 h post-inoculation) | MIC against indicator E. coli strains (E. coli [1]) | S. typhimurium culture density reduction relative to C-SN (S. typhimurium) | L. lactis growth inhibition (L. lactis IL1403) | Concentration up to which L. lactis remained viable (L. lactis IL1403; highest concentration tested) | E. coli culture density/concentration reduction relative to C-SN (E. coli [2]) | S. infantis culture density/growth reduction relative to C-SN (fraction) (S. infantis) | Salmonella growth inhibition at longer times (Salmonella; 10-15 h post-inoculation, versus C-SN) | S. infantis culture density reduction relative to C-SN (S. infantis) |
| --- | --- | --- | --- | --- | --- | --- | --- | --- | --- |
| CC[C@H](C)[C@H](NC(=O)CNC(=O)[C@H](CCCCN)NC(=O)[C@@H](NC(=O)[C@H](CC(C)C)NC(=O)[C@H](CO)NC(=O)CNC(=O)[C@H](CC(C)C)NC(=O)CNC(=O)[C@H](C)NC(=O)[C@H](CCCCN)NC(=O)[C@H](Cc1ccccc1)NC(=O)[C@@H](NC(=O)[C@H](CC(=O)O)NC(=O)[C@H](CCCCN)NC(=O)[C@H](CC(C)C)NC(=O)CN)[C@@H](C)CC)C(C)C)C(=O)N[C@@H](C)C(=O)N[C@@H](C)C(=O)N[C@@H](Cc1c[nH]cn1)C(=O)N[C@H](C(=O)N[C@@H](C)C(=O)N[C@@H](CC(N)=O)C(=O)O)C(C)C [Alyteserin, Alyteserin-1a] (H-GLKDIFKAGLGSLVKGIAAHVAN-OH; N-terminus and C-terminus assumed) | 15% | 500 µg/mL (≈ 219 µM) | 10 fold | not achieved | > 1 mg/mL | 20 fold | about one-half |  |  |
| CC(C)C[C@H](NC(=O)[C@H](Cc1ccc(O)cc1)NC(=O)[C@@H]1CCCN1C(=O)[C@H](CCCNC(=N)N)NC(=O)[C@@H]1CCCN1C(=O)[C@H](CCCCN)NC(=O)[C@H](CC(=O)O)NC(=O)[C@@H]1CCCN1C(=O)[C@@H](N)CCCNC(=N)N)C(=O)N1CCC[C@H]1C(=O)N[C@@H](CCCNC(=N)N)C(=O)N1CCC[C@H]1C(=O)N[C@@H](CCCNC(=N)N)C(=O)N1CCC[C@H]1C(=O)N1CCC[C@H]1C(=O)N[C@@H](CCCNC(=N)N)C(=O)N1CCC[C@H]1C(=O)N[C@H](C(=O)N[C@@H](CCCNC(=N)N)C(=O)O)C(C)C [A3APO, A3APO (single chain)] (H-RPDKPRPYLPRPRPPRPVR-OH; N-terminus and C-terminus assumed) |  |  | 4 fold | not inhibited; also recorded: not achieved |  |  |  | not observed | 20 fold |

Reference: patent US10813956B2, “Methods for making and using antimicrobial peptides” (REGENTS OF THE UNIVERSITY OF MINNESOTA, priority 2012, dated 2020)
